According to patent US12435091B2, “RNA-binding protein multimerization inhibitors and methods of use thereof” (THE UAB RESEARCH FOUNDATION, priority 2020, dated 2025):

Key:
[1] = test system: Bcl2 and Mcl1 mRNAs in U251 cell line; experiment: Taqman quantification of Bcl2/18S and Mcl1/18S mRNA; type: cell-based; conditions: U251, 10 uM for 24 hours
Protocol: (§1) The HuR-mRNA co-immunoprecipitation (IP) was performed by utilizing RiboCluster Profiler RIP-assay Kit (MBL International). The quantifications of Bcl2, and 18S transcripts were performed using Taqman technique with the following gene-specific probes: Hs00153350_m1, Hs03003631_g1, and Hs00766187_m1 (ThermoFisher Scientific) for Bcl2, 18S, and Mcl1, respectively.
(§2) mRNA isolation and purification from adherent cells were performed using RNeasy Mini Kit and QIAshredder columns (Qiagen, Valencia, CA).
(§3) HuR protein plays a significant role in the stabilization of the mRNAs of the anti-apoptotic Bcl2-family, which contributes to the protection of genetically unstable glioma cells from apoptosis. Therefore, the Bcl2 family was evaluated in the established and PDGx cell lines after cell treatment with SRI-41664 or SRI-42127 compounds. […] The protein levels of Bcl2 and Mcl1 were evaluated in the established U251 and PDGx XD456 glioma cell lines in the control (vehicle treatment) and after treatment with SRI-41664 or SRI-42127 compounds for 48 hours.

[2] = test system: Bcl2 and Mcl1 mRNAs in PDGx XD456 cell line; experiment: as above; type: cell-based; conditions: XD456, 10 uM for 24 hours
Protocol: as §1, §2, §3

[3] = test system: Bcl2 and Mcl1 mRNAs in U87 cell line; experiment: as above; type: cell-based; conditions: U87, 10 uM for 24 hours
Protocol: as §1, §2, §3

[4] = test system: Bcl2 and Mcl1 mRNAs in LN229 cell line; experiment: as above; type: cell-based; conditions: LN229, 10 uM for 24 hours
Protocol: as §1, §2, §3

[5] = test system: U251 cell line; experiment: soft agar colony formation assay; type: cell-based; conditions: 3 uM
Protocol: (§4) The soft agar colony formation assay was performed by using 0.9% and 0.45% agarose for the bottom and the top layers, respectively; cells were incorporated in the top layer. Seaplaque low-melting temperature agarose was purchased from Lonza (Rockland, ME). Five hundred cells per well were utilized in both, the soft agar and the attached colony formation assays, which were performed in 6 well plates; cells were treated with vehicle as the control or with the desired drugs, which were administered twice per week for three weeks. The Crystal violet solution (0.1%) was utilized for colony staining in both assays. The colonies were counted after three weeks of treatment; the plate images were obtained by using Amersham Imager-600 reader (Piscataway, NJ).
(§5) Graphs in FIG. 8D illustrate the average numbers of colonies formed by established U251 and PDGx XD456 cell lines in the attached cell colony formation assay and in the soft agar colony formation assay, which represents anchorage independent cell growth.

[6] = test system: XD456 cell line; experiment: soft agar colony formation assay; type: cell-based; conditions: 3 uM
Protocol: as §4, §5

[7] = brain tissue binding; type: in vitro ADME
[8] = test system: PDGx XD456 glioma cell line; experiment: cell cycle analysis (propidium iodide, flow cytometry); type: cell-based; conditions: XD456, 10 uM for 18 hours
Protocol: (§6) Cell cycle distribution was evaluated using a standard staining procedure with propidium iodide (PI) (Sigma-Aldrich; St. Louis, MO) followed by flow cytometry. For cell cycle analysis, cells were plated at low density and synchronized by starvation in serum-free media for 48 hours, then treated with drug or vehicle (control) for 18 hours in normal media with 10% serum. Next, cells were collected, washed, and resuspended in ice-cold phosphate buffered saline (PBS). Cells were fixed under gentle vortexing by dropwise addition of a 10×volume of ice-cold 80% ethanol (−20° C.) on ice. Subsequently, samples were stored at −20° C. for at least 18 hours until data acquisition. Before cell cycle analysis, cells were washed in PBS and treated with RNase A (200 μg/mL, in PBS) and PI (20 μg/mL) for 45 minutes at 23° C. Acquisition of at least 10000 events per sample was performed in UAB Flow Cytometry Facility. Data were analyzed by FlowJo v10 software (Becton, Dickinson and Company; Franklin Lakes, NJ).
(§7) HuR is one of the key regulators of cell cycle progression in cancer cells, particularly high-grade glioma; therefore, the arrest of cell cycle progression by the newly identified compounds supports HuR-targeted inhibition. FIG. 5B illustrates representative histograms of cell cycle progression in the established U251, LN229, and the PDGx XD456 glioma cell lines in the control (treatment with vehicles) and after treatment with SRI-42127. The bar graph represents the average numbers of cells in each phase of the cell cycle after treatment with the SRI-42127 normalized to the corresponding control values (vehicle treatment). There was a significant accumulation of cells in the G1 phase and a reduction of cells in the S phase after treatment with SRI-42127, 10 uM for 18 hours. […] The average reductions of cells in the S phase were 65±4% (n=3), 60±3% (n=3), and 70±3% (n=3) in U251, LN229, and XD456 cell lines, respectively, after treatment with SRI-42127 compared to the control.

[9] = test system: U251 glioma cell line; experiment: as above; type: cell-based; conditions: U251, 10 uM for 18 hours
Protocol: as §6, §7

[10] = test system: LN229 glioma cell line; experiment: as above; type: cell-based; conditions: LN229, 10 uM for 18 hours
Protocol: as §6, §7

[11] = test system: HMGB1; experiment: nuclear/cytoplasmic localization by confocal microscopy in LPS-activated primary microglia; type: cell-based, mouse; conditions: 0.5 μM for 24 hours
Protocol: To assess the specificity of SRI-42127 for blocking HuR cytoplasmic translocation, the effect of SRI-42127 on cytoplasmic translocation of HMGB1 was assessed. Like HuR, HMGB1 is nuclear predominant and translocates with microglial activation. Primary microglia were treated with LPS and 0.5 μM of SRI-42127 for 24 hours. Cells were fixed and immunostained for HMGB1 and IBA1. Nuclear/cytoplasmic localization was assessed by confocal microscopy. Total HMGB1 immunofluorescence in each cell (boundaries defined by IBA1 staining), was quantified using Fiji software. The nuclear portion was determined by quantifying the amount of HMGB1 fluorescence that overlapped with DAPI fluorescence. HuR translocation was studied in parallel with the same methodology.
In unactivated microglia (LPS-), both HuR and HMGB1 were nuclear predominant with little to no merged signal with cytoplasmic IBA1 as depicted in FIG. 11, Panel C.

CN(c1ccc2ncc(-c3ccc4cn[nH]c4c3)n2n1)C1CCOCC1 [Compound 19]
decrease of Bcl2/18S mRNA ratio [1]: 96±2% | decrease of Mcl1/18S mRNA ratio [1]: 95±3% | decrease of Bcl2/18S mRNA ratio [2]: 96±2% | decrease of Mcl1/18S mRNA ratio [2]: 90±9% | decrease of Bcl2/18S mRNA ratio [3]: 95±2% | decrease of Mcl1/18S mRNA ratio [3]: 86±7% | decrease of Bcl2/18S mRNA ratio [4]: 95±2% | decrease of Mcl1/18S mRNA ratio [4]: 87±8% | number of colonies [5]: 90+70 | number of colonies [6]: 39+6 | brain tissue binding [7]: 99.13% | recovery ([7]; brain tissue, relatively low due to instability or high nonspecific binding): 69.6% | increase of cells in the G1 phase compared to the control [8]: 210±40% | reduction of cells in the S phase compared to the control [8]: 70±3% | increase of cells in the G1 phase compared to the control [9]: 97±33% | reduction of cells in the S phase compared to the control [9]: 65±4% | increase of cells in the G1 phase compared to the control [10]: 56±28% | reduction of cells in the S phase compared to the control [10]: 60±3% | HMGB1 N/C ratio [11]: no effect
